One data set has as its system TGF-α. To be noted: background art; cited from earlier work.
The conditions of data set [1]: background art; cited from earlier work.
The next data set relates to src^ts -NRK cells. Description: Cell toxicity in src^ts-NRK cells. The data set is classed as cell-based, Rat. To be noted: 50 μg/ml, 32° C.
A short description of another data set: Acute toxicity. To be noted: mouse, in vivo, iv.
The subject of the next data set is mouse epithelial cells. Nature of the data set: Cell toxicity in mouse epithelial cells. Type of data set: cell-based. To be noted: 50 μg/ml.

A value given as a limit tells only on which side of the number the result lay.

On to `O=CN/C=C/c1cc(O)ccc1O` [Erbstatin], for which the potency entry in the data set on TGF-α is “not sufficiently potent”. For the same compound, the effect in blood result in data set [1] is reported as “lose their effects in blood”.

For `CCCC[C@@]1(OC(=O)CCC(=O)O)CC[C@]2(CC[C@H](C)[C@@H](C/C=C(C)/C=C/[C@H](O)[C@@H](C)/C=C/C(=O)O)O2)O[C@H]1/C=C/C(C)=C/C(=O)O` [Reveromycin A], the cell toxicity entry with src^ts -NRK cells and with mouse epithelial cells was “observed” in each case. Besides, the Solubility entry in “Solubility” (aqueous acidic solution) is “insoluble”; in the data set “Solubility” (dimethylsulfoxide, ethyl acetate, and methanol), “easily soluble”. Also, the median lethal dose (LD50) in the data set “Acute toxicity” was ≥ 100 mg/kg.

The values above are taken from patent publication US5322854A, “Reveromycin A, method for preparing the same, and antitumor agent and antifungal agent comprising the same” (Rikagaku Kenkyusho, priority 1990, dated 1994).
